Source: ChEMBL document CHEMBL4177607, “Antibacterial constituents of the plant family Amaryllidaceae” (2017)
Converted amounts (≈) assume the structure as drawn.

Key:
Staphylococcus aureus [1] = experiment: Antibacterial activity against Staphylococcus aureus assessed as diameter of inhibition zone at 3 mg/ml; assay type: functional; conditions: read-out: DIZ
Pseudomonas aeruginosa [2] = experiment: Antibacterial activity against Pseudomonas aeruginosa assessed as diameter of inhibition zone at 3 mg/ml; assay type: functional; conditions: read-out: DIZ
Escherichia coli [3] = experiment: Antibacterial activity against Escherichia coli assessed as diameter of inhibition zone at 1 mg/ml; assay type: functional; conditions: read-out: DIZ
Staphylococcus aureus [4] = experiment: Antibacterial activity against Staphylococcus aureus assessed as diameter of inhibition zone at 1 mg/ml; assay type: functional; conditions: read-out: DIZ
Escherichia coli [5] = experiment: Antibacterial activity against Escherichia coli by agar dilution method; assay type: functional
Staphylococcus aureus [6] = experiment: Antibacterial activity against Staphylococcus aureus by agar dilution method; assay type: functional
Staphylococcus aureus [7] = experiment: Antibacterial activity against Staphylococcus aureus after 24 hrs; assay type: functional
Escherichia coli [8] = experiment: Bacteriostatic activity against Escherichia coli assessed as growth inhibition at 8 ug/ml after 24 hrs; assay type: functional; conditions: read-out: GI
[9] = test system: Agrobacterium tumefaciens; experiment: Antibacterial activity against Agrobacterium tumefaciens assessed as inhibition of crown gall tumor initiation at 1 mg/ml; assay type: functional
Escherichia coli [10] = experiment: Antibacterial activity against Escherichia coli assessed as diameter of inhibition zone at 20 mg/ml; assay type: functional; conditions: read-out: DIZ
Staphylococcus aureus [11] = experiment: Antibacterial activity against Staphylococcus aureus assessed as diameter of inhibition zone at 20 mg/ml; assay type: functional; conditions: read-out: DIZ
Helicobacter pylori = experiment: Antibacterial activity against Helicobacter pylori assessed as diameter of inhibition zone at 1 mg/ml; assay type: functional; conditions: read-out: DIZ
Klebsiella pneumoniae [12] = experiment: Antibacterial activity against Klebsiella pneumoniae assessed as diameter of inhibition zone at 20 mg/ml; assay type: functional; conditions: read-out: DIZ
Pseudomonas aeruginosa [13] = experiment: Antibacterial activity against Pseudomonas aeruginosa assessed as diameter of inhibition zone at 20 mg/ml; assay type: functional; conditions: read-out: DIZ
Salmonella typhi = experiment: Antibacterial activity against Salmonella typhi assessed as diameter of inhibition zone at 20 mg/ml; assay type: functional, Salmonella enterica subsp. enterica serovar Typhi; conditions: Salmonella enterica; read-out: DIZ
Rhodococcus fascians = experiment: Antibacterial activity against Corynebacterium fascians assessed as diameter of inhibition zone at 10 mM after 48 to 72 hrs by paper disc method; assay type: functional; conditions: Rhodococcoides fascians; read-out: DIZ
Edwardsiella ictaluri = experiment: Antibacterial activity against Edwardsiella ictaluri after 24 hrs; assay type: functional
Flavobacterium columnare [14] = experiment: Antibacterial activity against Flavobacterium columnare ALM-00-173 after 24 hrs; assay type: functional; conditions: ALM-00-173, 24 h
Flavobacterium columnare [15] = experiment: Antibacterial activity against Flavobacterium columnare BioMed after 24 hrs; assay type: functional
Escherichia coli [16] = experiment: Antibacterial activity against Escherichia coli; assay type: functional
Flavobacterium columnare [17] = experiment: Antibacterial activity against Flavobacterium columnare ALM-00-173; assay type: functional
Flavobacterium columnare [18] = experiment: Antibacterial activity against Flavobacterium columnare BioMed; assay type: functional
Pseudomonas aeruginosa [19] = experiment: Antibacterial activity against Pseudomonas aeruginosa; assay type: functional
Staphylococcus aureus [20] = experiment: Antibacterial activity against Staphylococcus aureus; assay type: functional
Bacillus subtilis = experiment: Antibacterial activity against Bacillus subtilis incubated overnight by two-fold serial dilution method; assay type: functional
Escherichia coli [21] = experiment: Antibacterial activity against Escherichia coli incubated overnight by two-fold serial dilution method; assay type: functional
Klebsiella pneumoniae [22] = experiment: Antibacterial activity against Klebsiella pneumoniae incubated overnight by two-fold serial dilution method; assay type: functional
Staphylococcus aureus [23] = experiment: Antibacterial activity against Staphylococcus aureus incubated overnight by two-fold serial dilution method; assay type: functional

Question: Which zone of inhibition at 3000 µg/mL (Staphylococcus aureus [1]) does the source give for `O[C@H]1C=C2[C@H]3CN(Cc4cc5c(cc43)OCO5)[C@H]2C[C@@H]1O` here?
Answer: 22 mm

Question: And the zone of inhibition at 3000 µg/mL (Pseudomonas aeruginosa [2])?
Answer: 16 mm

Question: How did the zone of inhibition at 1000 µg/mL (Escherichia coli [3]) turn out when `CC1(C)S[C@@H]2[C@H](NC(=O)Cc3ccccc3)C(=O)N2[C@H]1C(=O)O` [PENICILLIN G] was run?
Answer: 25 mm

Question: What about the zone of inhibition at 1000 µg/mL (Staphylococcus aureus [4]) of the same compound?
Answer: 28 mm

Question: What about the MIC (Escherichia coli [5]) of the same compound?
Answer: 0.77 µg/mL (≈ 2.3 µM)

Question: And the MIC (Staphylococcus aureus [6])?
Answer: 0.46 µg/mL (≈ 1.38 µM)

Question: For `COc1cc2c(cc1OC)[C@@H]1[C@@H](OC2=O)[C@@H](O)C[C@H]2CCN(C)[C@H]21.Cl`, which MIC (Staphylococcus aureus [7]) is on record?
Answer: > 37 µg/mL

Question: With `O=C1N[C@@H]2C(=C[C@H](O)[C@@H](O)[C@H]2O)c2cc3c(c(O)c21)OCO3` [NARCICLASINE] as the compound, how does the inhibition of growth at 8 µg/mL (Escherichia coli [8]) read?
Answer: 50%

Question: What about the zone of inhibition at 1000 µg/mL (Escherichia coli [3]) of the same compound?
Answer: 13 mm

Question: What about the zone of inhibition at 1000 µg/mL (Staphylococcus aureus [4]) of the same compound?
Answer: 11 mm

Question: What about the inhibition at 1000 µg/mL [9] of the same compound?
Answer: 62%

Question: Which zone of inhibition at 1000 µg/mL (Escherichia coli [3]) does the source give for `CC[C@H](CC[C@@H](C)[C@H]1CC[C@H]2[C@@H]3CC=C4C[C@@H](O[C@@H]5O[C@H](CO)[C@@H](O)[C@H](O)[C@H]5O)CC[C@]4(C)[C@H]3CC[C@]12C)C(C)C` [SITOGLUSIDE] here?
Answer: 14 mm

Question: What about the zone of inhibition at 1000 µg/mL (Staphylococcus aureus [4]) of the same compound?
Answer: 9 mm

Question: What about the zone of inhibition at 20000 µg/mL (Escherichia coli [10]) of the same compound?
Answer: 9 mm

Question: And the zone of inhibition at 20000 µg/mL (Staphylococcus aureus [11])?
Answer: 7 mm

Question: What about the zone of inhibition at 1000 µg/mL (Helicobacter pylori) of the same compound?
Answer: 9 mm

Question: And the zone of inhibition at 20000 µg/mL (Klebsiella pneumoniae [12])?
Answer: 8 mm

Question: And the zone of inhibition at 20000 µg/mL (Pseudomonas aeruginosa [13])?
Answer: 7 mm

Question: And the zone of inhibition at 20000 µg/mL (Salmonella typhi)?
Answer: 8 mm

Question: `[O-]c1cc2c3c(c1)c1cc4c(cc1c[n+]3CC2)OCO4` [UNGEREMINE] was tested. Which zone of inhibition at 10000 µM (Rhodococcus fascians) did it give?
Answer: 15 mm

Question: What about the MIC (Edwardsiella ictaluri) of the same compound?
Answer: 3 µg/mL (≈ 11.3 µM)

Question: And the MIC (Flavobacterium columnare [14])?
Answer: 1 µM (≈ 0.265 µg/mL)

Question: What about the MIC (Flavobacterium columnare [15]) of the same compound?
Answer: 1 µM (≈ 0.265 µg/mL)

Question: What about the MIC (Escherichia coli [16]) of the same compound?
Answer: 25 to 50 µg/mL (≈ 94.2 to 188 µM)

Question: And the MIC (Flavobacterium columnare [17])?
Answer: 3 µg/mL (≈ 11.3 µM)

Question: What about the MIC (Flavobacterium columnare [18]) of the same compound?
Answer: 3 µg/mL (≈ 11.3 µM)

Question: What about the MIC (Pseudomonas aeruginosa [19]) of the same compound?
Answer: 125 to 250 µg/mL (≈ 471 to 942 µM)

Question: And the MIC (Staphylococcus aureus [20])?
Answer: 25 to 265 µg/mL (≈ 94.2 to 999 µM)

Question: Which MIC (Bacillus subtilis) does the source give for `COC1=CC(=O)[C@@]23CCN(Cc4c2cc2c(c4OC)OCO2)[C@@H]3C1` [DISTICHAMINE] here?
Answer: 130 µg/mL (≈ 395 µM)

Question: And the MIC (Escherichia coli [21])?
Answer: 63 µg/mL (≈ 191 µM)

Question: And the MIC (Klebsiella pneumoniae [22])?
Answer: 63 µg/mL (≈ 191 µM)

Question: What about the MIC (Staphylococcus aureus [23]) of the same compound?
Answer: 63 µg/mL (≈ 191 µM)

Question: For `O=c1c2cc3c(cc2c2cccc4ccn1c42)OCO3`, which zone of inhibition at 20000 µg/mL (Escherichia coli [10]) is on record?
Answer: 7 mm

Question: And the zone of inhibition at 20000 µg/mL (Staphylococcus aureus [11])?
Answer: 7 mm

Question: Which MIC (Bacillus subtilis) does the source give for `COc1c2c(cc3c1OCO3)[C@]13C=C[C@H](OC)C[C@H]1N(CC3)C2` [BUPHANIDRINE] here?
Answer: 130 µg/mL (≈ 412 µM)

Question: And the MIC (Escherichia coli [21])?
Answer: 63 µg/mL (≈ 200 µM)

Question: What about the MIC (Klebsiella pneumoniae [22]) of the same compound?
Answer: 63 µg/mL (≈ 200 µM)

Question: And the MIC (Staphylococcus aureus [23])?
Answer: 63 µg/mL (≈ 200 µM)

Question: Which results are given for `CCCCCCCCCCCCCCCCC/C=C/CCC[C@@H](O)[C@@H](O)C(CO)N(C(=O)[C@H](O)CCCCCCCCCCCCCCC)C(O)CO` (stereo not given in full)?
Answer: MIC (Escherichia coli [5]): 50 µg/mL (≈ 66.1 µM); MIC (Staphylococcus aureus [6]): 30 µg/mL (≈ 39.7 µM)
